# How the values were obtained:
# Format in all cases: in vivo
# [1] = test system: barnyardgrass (Echinochloa crus-galli); experiment: Test D flooded paddy test, visual plant response rating; details: 250 g ai/ha, scale 0 to 100 (0 no effect, 100 complete control), 13 to 15 d
# How it was run: (§1)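 Plants grown to the 2-leaf stage; pots flooded to 3 cm above soil and compound applied directly into paddy water, depth held throughout. Kept in greenhouse 13 to 15 d, then rated visually against untreated controls on a 0–100 scale (0 no effect, 100 complete control).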
# [2] = test system: sedge umbrella (small-flower umbrella sedge, Cyperus difformis); experiment: as above; details: 250 g ai/ha, scale 0 to 100 (0 no effect, 100 complete control), 13 to 15 d
# How it was run: as §1
# rice (Oryza sativa) = experiment: as above; details: 250 g ai/ha, scale 0 to 100 (0 no effect, 100 complete control), 13 to 15 d
# How it was run: as §1
# [3] = test system: duck salad (Heteranthera limosa); experiment: as above; details: 250 g ai/ha, scale 0 to 100 (0 no effect, 100 complete control), 13 to 15 d
# How it was run: as §1
# [4] = test system: barnyardgrass (Echinochloa crus-galli); experiment: Test C postemergence, visual plant response rating; details: Test C, postemergence
# How it was run: (§2)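 Seeds sown in a loam–sand blend got a directed preemergence soil spray; postemergence plants (2–10 cm, one- to two-leaf stage) were sprayed with compound in a non-phytotoxic solvent plus surfactant. Injury was scored visually against untreated controls after about 10 d in a greenhouse on a 0–100 scale (100 = complete control).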
# [5] = test system: foxtail, giant (giant foxtail, Setaria faberi); experiment: Test C postemergence, visual plant response rating; details: Test C, postemergence
# How it was run: as §2
# corn (Zea mays) = experiment: Test C postemergence, visual plant response rating; details: Test C, postemergence
# How it was run: as §2
# [6] = test system: ragweed (common ragweed, Ambrosia artemisiifolia); experiment: Test C postemergence, visual plant response rating
# How it was run: as §2
# [7] = test system: blackgrass (Alopecurus myosuroides); experiment: Test C postemergence, visual plant response rating; details: Test C, postemergence
# How it was run: as §2
# [8] = test system: pigweed (Amaranthus retroflexus); experiment: Test C postemergence, visual plant response rating
# How it was run: as §2
# kochia (Bassia scoparia) [9] = experiment: Test C postemergence, visual plant response rating; details: Test C, postemergence
# How it was run: as §2
# [10] = test system: Italian ryegrass (Lolium mutiflorum); experiment: Test C postemergence, visual plant response rating
# How it was run: as §2
# [11] = test system: galium (catchweed bedstraw, Galium aparine); experiment: Test C postemergence, visual plant response rating; details: Test C, postemergence
# How it was run: as §2
# [12] = test system: wheat (Triticum aestivum); experiment: Test C postemergence, visual plant response rating
# How it was run: as §2
# [13] = test system: barnyardgrass (Echinochloa crus-galli); experiment: Test C preemergence, visual plant response rating
# How it was run: as §2
# [14] = test system: foxtail, giant (giant foxtail, Setaria faberi); experiment: Test C preemergence, visual plant response rating
# How it was run: as §2
# [15] = test system: ragweed (common ragweed, Ambrosia artemisiifolia); experiment: Test C preemergence, visual plant response rating
# How it was run: as §2
# [16] = test system: pigweed (Amaranthus retroflexus); experiment: Test C preemergence, visual plant response rating
# How it was run: as §2
# kochia (Bassia scoparia) [17] = experiment: Test C preemergence, visual plant response rating
# How it was run: as §2
# [18] = test system: Italian ryegrass (Lolium mutiflorum); experiment: Test C preemergence, visual plant response rating
# How it was run: as §2
# [19] = Test C, postemergence, 125 g ai/ha
# [20] = Test C, postemergence, 500 g ai/ha
# [21] = Test C, 31 g ai/ha, 0 is no effect, 100 is complete control
Structure (SMILES),"Plant response rating, Barnyardgrass (Flood) [1]","Plant response rating, Sedge, Umbrella (Flood) [2]","Plant response rating, Rice (Flood) (rice (Oryza sativa))","Plant response rating, Ducksalad (Flood) [3]",Barnyardgrass plant response rating (0 to 100 scale) ([4]; 125 g ai/ha),"Foxtail, Giant plant response rating (0 to 100 scale) ([5]; 125 g ai/ha)",Corn plant response rating (0 to 100 scale) (corn (Zea mays); 125 g ai/ha),"Ragweed plant response rating (0 to 100 scale) [6, 19]",Blackgrass plant response rating (0 to 100 scale) ([7]; 125 g ai/ha),"Pigweed plant response rating (0 to 100 scale) [8, 19]",Kochia plant response rating (0 to 100 scale) (kochia (Bassia scoparia) [9]; 125 g ai/ha),"Ryegrass, Italian plant response rating (0 to 100 scale) [10, 19]",Galium plant response rating (0 to 100 scale) ([11]; 125 g ai/ha),"Wheat plant response rating (0 to 100 scale) [12, 19]",Barnyardgrass plant response rating (0 to 100 scale) ([13]; 125 g ai/ha),"Foxtail, Giant plant response rating (0 to 100 scale) ([14]; 125 g ai/ha)",Ragweed plant response rating (0 to 100 scale) ([15]; 125 g ai/ha),Pigweed plant response rating (0 to 100 scale) ([16]; 125 g ai/ha),Kochia plant response rating (0 to 100 scale) (kochia (Bassia scoparia) [17]; 125 g ai/ha),"Ryegrass, Italian plant response rating (0 to 100 scale) ([18]; 125 g ai/ha)",also measured
CON=C(c1csc(C)c1)c1c(O)c(C)nn(C)c1=O [Compound 151],0,0,0,0,0,0,0,0,0,10,0,20,40,0,0,0,0,0,0,0,"Barnyardgrass plant response rating (0 to 100 scale) ([4]; 500 g ai/ha): 10; Foxtail, Giant plant response rating (0 to 100 scale) ([5]; 500 g ai/ha): 10; Corn plant response rating (0 to 100 scale) (corn (Zea mays); 500 g ai/ha): 0; Ragweed plant response rating (0 to 100 scale) [6, 20]: 30; Blackgrass plant response rating (0 to 100 scale) ([7]; 500 g ai/ha): 30; Pigweed plant response rating (0 to 100 scale) [8, 20]: 10; Kochia plant response rating (0 to 100 scale) (kochia (Bassia scoparia) [9]; 500 g ai/ha): 20; Ryegrass, Italian plant response rating (0 to 100 scale) [10, 20]: 30; Galium plant response rating (0 to 100 scale) ([11]; 500 g ai/ha): 50; Wheat plant response rating (0 to 100 scale) [12, 20]: 0; Barnyardgrass plant response rating (0 to 100 scale) ([13]; 500 g ai/ha): 0; Foxtail, Giant plant response rating (0 to 100 scale) ([14]; 500 g ai/ha): 0; Ragweed plant response rating (0 to 100 scale) ([15]; 500 g ai/ha): 0; Pigweed plant response rating (0 to 100 scale) ([16]; 500 g ai/ha): 0; Kochia plant response rating (0 to 100 scale) (kochia (Bassia scoparia) [17]; 500 g ai/ha): 0; Ryegrass, Italian plant response rating (0 to 100 scale) ([18]; 500 g ai/ha): 30"
CO/N=C(\c1cc(F)cc(F)c1C)c1c(O)c(C)nn(C)c1=O [Compound 152],0,0,0,0,20,50,0,90,10,70,80,80,80,0,10,20,40,30,10,80,"Barnyardgrass plant response rating (0 to 100 scale) ([4]; 31 g ai/ha): 0; Foxtail, Giant plant response rating (0 to 100 scale) ([5]; 31 g ai/ha): 10; Corn plant response rating (0 to 100 scale) (corn (Zea mays); 31 g ai/ha): 0; Ragweed plant response rating (0 to 100 scale) ([6]; Postemergence, 31 g ai/ha): 40; Blackgrass plant response rating (0 to 100 scale) ([7]; 31 g ai/ha): 0; Pigweed plant response rating (0 to 100 scale) ([8]; Postemergence, 31 g ai/ha): 60; Kochia plant response rating (0 to 100 scale) (kochia (Bassia scoparia) [9]; 31 g ai/ha): 50; Ryegrass, Italian plant response rating (0 to 100 scale) ([10]; Postemergence, 31 g ai/ha): 20; Galium plant response rating (0 to 100 scale) ([11]; 31 g ai/ha): 80; Wheat plant response rating (0 to 100 scale) ([12]; Postemergence, 31 g ai/ha): 0; Barnyardgrass plant response rating (0 to 100 scale) [13, 21]: 0; Foxtail, Giant plant response rating (0 to 100 scale) [14, 21]: 0; Ragweed plant response rating (0 to 100 scale) [15, 21]: 20; Pigweed plant response rating (0 to 100 scale) [16, 21]: 0; Kochia plant response rating (0 to 100 scale) (kochia (Bassia scoparia) [17]; [21]): 0; Ryegrass, Italian plant response rating (0 to 100 scale) [18, 21]: 20"
CON=C(c1cc(Cl)cc(Cl)c1F)c1c(O)c(C)nn(C)c1=O [Compound 153],80,70,40,55,90,100,50,100,80,100,100,100,100,80,90,100,100,100,90,100,"Barnyardgrass plant response rating (0 to 100 scale) ([4]; 31 g ai/ha): 80; Foxtail, Giant plant response rating (0 to 100 scale) ([5]; 31 g ai/ha): 90; Corn plant response rating (0 to 100 scale) (corn (Zea mays); 31 g ai/ha): 20; Ragweed plant response rating (0 to 100 scale) ([6]; Postemergence, 31 g ai/ha): 90; Blackgrass plant response rating (0 to 100 scale) ([7]; 31 g ai/ha): 50; Pigweed plant response rating (0 to 100 scale) ([8]; Postemergence, 31 g ai/ha): 100; Kochia plant response rating (0 to 100 scale) (kochia (Bassia scoparia) [9]; 31 g ai/ha): 90; Ryegrass, Italian plant response rating (0 to 100 scale) ([10]; Postemergence, 31 g ai/ha): 90; Galium plant response rating (0 to 100 scale) ([11]; 31 g ai/ha): 100; Wheat plant response rating (0 to 100 scale) ([12]; Postemergence, 31 g ai/ha): 40; Barnyardgrass plant response rating (0 to 100 scale) [13, 21]: 80; Foxtail, Giant plant response rating (0 to 100 scale) [14, 21]: 90; Ragweed plant response rating (0 to 100 scale) [15, 21]: 90; Pigweed plant response rating (0 to 100 scale) [16, 21]: 100; Kochia plant response rating (0 to 100 scale) (kochia (Bassia scoparia) [17]; [21]): 60; Ryegrass, Italian plant response rating (0 to 100 scale) [18, 21]: 100"
C#CCO/N=C(/c1cc(C)cc(Cl)c1)c1c(O)c(C)nn(C)c1=O [Compound 154],0,0,0,0,90,90,40,90,90,100,70,100,100,90,90,100,80,90,90,100,"Barnyardgrass plant response rating (0 to 100 scale) ([4]; 31 g ai/ha): 50; Foxtail, Giant plant response rating (0 to 100 scale) ([5]; 31 g ai/ha): 80; Corn plant response rating (0 to 100 scale) (corn (Zea mays); 31 g ai/ha): 0; Ragweed plant response rating (0 to 100 scale) ([6]; Postemergence, 31 g ai/ha): 70; Blackgrass plant response rating (0 to 100 scale) ([7]; 31 g ai/ha): 50; Pigweed plant response rating (0 to 100 scale) ([8]; Postemergence, 31 g ai/ha): 30; Kochia plant response rating (0 to 100 scale) (kochia (Bassia scoparia) [9]; 31 g ai/ha): 60; Ryegrass, Italian plant response rating (0 to 100 scale) ([10]; Postemergence, 31 g ai/ha): 70; Galium plant response rating (0 to 100 scale) ([11]; 31 g ai/ha): 90; Wheat plant response rating (0 to 100 scale) ([12]; Postemergence, 31 g ai/ha): 30; Barnyardgrass plant response rating (0 to 100 scale) [13, 21]: 40; Foxtail, Giant plant response rating (0 to 100 scale) [14, 21]: 60; Ragweed plant response rating (0 to 100 scale) [15, 21]: 40; Pigweed plant response rating (0 to 100 scale) [16, 21]: 40; Kochia plant response rating (0 to 100 scale) (kochia (Bassia scoparia) [17]; [21]): 0; Ryegrass, Italian plant response rating (0 to 100 scale) [18, 21]: 40"
